Measurements from patent publication US10538516B2, “Oxadiazole derivative and pharmaceutical containing same” (National Center for Geriatrics and Gerontology, priority 2015, dated 2020).
Structures can show the parent of a compound that is named as a salt. Where two headings read alike, the source gives them in different places.

Biological target: T1, GAβ-dependent amyloid fibril formation (Human Aβ1-40 + GM1-containing liposome) (Homo sapiens, UniProt P05067)
T1 construct: Human Aβ1-40 (cat. #4307-v, prepared by Peptide Institute); purchased Peptide Institute 4307-v
T1 sequence (P05067 672-711 limits assumed): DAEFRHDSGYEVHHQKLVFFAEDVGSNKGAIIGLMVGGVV
Assay: Thioflavin T (ThT) assay of GAβ-dependent amyloid fibril formation (Aβ1-40 with GM1-containing liposome)
Format: biochemical
Protocol: <3. Evaluation of the Compounds Based on the Inhibitory Activity Against Amyloid Fibril Formation in Thioflabin T (ThT) Assay>
Inhibitory activity against GAβ-dependent amyloid fibril formation of the above compounds 1 to 133 and 142 to 267 were evaluated in ThT assay.
(1) Preparation of Aβ Solution
Human Aβ1-40 (cat. #4307-v, prepared by Peptide Institute) was dissolved in a 0.02% ammonia solution (400 μM), and the mixture was treated in an ultracentrifuge (S110AT rotor, Hitachi) at 100,000 rpm for 3 hours. Approximately two-thirds of the upper layer of the supernatant was recovered and protein concentration was measured. The Aβ solution was aliquoted and stored at −80° C. until use, was melted immediately before use, and was diluted to 75 μM using phosphate buffer (PBS: cat. #10010, manufactured by Life Technologies).
(2) Preparation of GM1-Containing Liposome
Using a mixed solution of chloroform/methanol (1:1) as a solvent, a mixed solution of 100 mM each of cholesterol and sphingomyelin (both manufactured by Sigma-Aldrich) was prepared. To this mixed solution, GM 1 (cat. #1061, manufactured by Matreya Co.) was dissolved to make a solution of 50 mM concentration. This lipid mixed solution was aliquoted into glass test tubes and stored at −20° C. until use, was melted before use, was mixed with chloroform/methanol mixture (1:1) and mixed, and then the solvent was removed by applying nitrogen gas to the suspension. The dried lipid mixture was resuspended in PBS to be a GM1 concentration of 2.5 mM, and frozen and thawed 5 times with liquid nitrogen. The lipid suspension was centrifuged at 15,000 rpm for 10 minutes and the precipitate was resuspended in PBS to be a GM1 concentration of 2.5 mM. Using an ultrasonic crusher (XL-2000, MISONIX Co., Ltd.) equipped with a microchip, ultrasonic treatment was repeated on ice for 10 seconds until the suspension became transparent, and GM1-containing liposome was prepared. Immediately prior to use, PBS was added and diluted to a GM 1 concentration of 75 μM.
(3) Preparation of Compound Solution
Compounds 1 to 133 and 142 to 267 were prepared as 10 mM and 2 mM solution in DMSO, respectively. And each solution was diluted to 75 μM or 15 μM with PBS immediately prior to use.
(4) GAβ-Dependent Amyloid Fibril Formation
To a 96-well microplate, 5 μl each of the 75 μM Aβ solution prepared above (1), the compound solution prepared in (3) or 0.75% DMSO was mixed and incubated at room temperature for 10 minutes. Then, 5 μl each of 750 μM GM1-containing liposome prepared in (2) was added to each well and incubated at 37° C. for 18 hours.
ThT (manufactured by Sigma-Aldrich) was adjusted to 5 μM using 50 mM glycine-NaOH buffer (pH 8.5). Immediately before measurement, 10 μl from each well of (4) was transferred to a 96-well black plate. 50 μl of 5 μM ThT solution was added from each injector to each well using a multi-plate reader (ARVO-HTS, manufactured by Perkin Elmer), and then the optimal fluorescence of ThT bound to amyloid fiber (excitation wavelength 430 nm, fluorescence wavelength 490 nm) was measured.
The fluorescence intensity of ThT indicates the degree of amyloid fibrils formation. By calculating the ratio of the ThT fluorescence intensity between addition of the compound and without addition of the compound, the inhibition rate against amyloid fibril formation by the compound was calculated.

[1] = inhibition rate against amyloid fibril formation, final concentration of the compound 25 μM, read-out: Inhibitory activity ABC evaluation
[2] = read-out: ThT Inhibitory activity (% inhibition)
[3] = @25 μM, read-out: ThT Inhibitory activity (% inhibition)

Row | Compound | inhibition at 25 µM [1] | further results
1 | N#Cc1ccc(N2CC(c3nc(-c4ccc(O)cc4)no3)CC2=O)cc1 (centres unmarked) [Compound 79, 4-[4-{3-(4-hydroxyphenyl)-1,2,4-oxadiazol-5-yl}-2-oxopyrrolidin-1-yl]benzonitrile] | < 40% | –
2 | N[C@@H](Cc1c[nH]c2ccccc12)c1nnc(-c2ccc(OC(F)(F)F)cc2)o1 [Compound 110, (S)-2-(1H-indol-3-yl)-1-(5-(4-(trifluoro-methoxy)phenyl)-1,3,4-oxadiazol-2-yl) ethan-1-amine hydrochloride] | 40 to 80% | –
3 | O=C(N[C@@H](CO)c1nc(-c2ccc(OC(F)(F)F)cc2)no1)c1cccc(Cl)c1 [Compound 63, (S)-3-chloro-N-(2-hydroxy-1-[3-{4-(trifluoro-methoxy)phenyl}-1,2,4-oxadiazol-5-yl]ethyl) benzamide] | > 80% | inhibition at 5 µM [2]: 53%; inhibition at 25 µM [3]: 99%
4 | OC[C@H](NC(=S)Nc1ccc(Cl)cc1)c1nc(-c2ccc(OC(F)(F)F)cc2)no1 [Compound 97, (S)-1-(4-chloro-phenyl)-3-(2-hydroxy-1-[3-{4-(trifluoromethoxy)phenyl}-1,2,4-oxadiazol-5-yl]ethyl)thiourea] | 40 to 80% | –
5 | O=C1CC(c2nnn(-c3ccc(OC(F)(F)F)cc3)n2)CN1c1ccc(Cl)cc1 (centres unmarked) [Compound 122, 1-(4-chlorophenyl)-4-{2-[4-(trifluoromethoxy)phenyl]-2H-tetrazol-5-yl}pyrrolidin-2-one] | < 40% | –
6 | Cc1ccc(-c2noc([C@H](CO)NC(=O)c3ccccc3)n2)cc1 [Compound 143, N-[(1S)-2-hydroxy-1-[3-(4-methylphenyl)-1,2,4-oxadiazol-5-yl]ethyl]benzamide] | > 80% | –
7 | COc1ccc(-c2noc([C@H](CO)NC(=O)c3ccc(Cl)cc3)n2)cc1 [Compound 125, (S)-4-chloro-N-(2-hydroxy-1-(3-(4-methoxyphenyl)-1,2,4-oxadiazol-5-yl)ethyl)benzamide] | > 80% | inhibition at 5 µM [2]: 59%; inhibition at 25 µM [3]: 88%
8 | N#Cc1ccc(C(=O)N[C@@H](CO)c2nc(-c3ccc(O)c(F)c3)no2)cc1 [Compound 100, (S)-4-cyano-N-(1-(3-(3-fluoro-4-hydroxyphenyl)-1,2,4-oxadiazol-5-yl)-2-hydroxy-ethyl)benzamide] | 40 to 80% | –
9 | COc1ccc(-c2noc([C@@H](N)Cc3c[nH]c4ccccc34)n2)cc1 [Compound 18, (S)-2-(1H-indol-3-yl)-1-{3-(4-methoxyphenyl)-1,2,4-oxadiazol-5-yl}ethan-1-amine] | > 80% | inhibition at 25 µM [3]: 86%
10 | O=C(NC(CO)c1nc(-c2ccc(C(F)(F)F)cc2)no1)c1ccc(F)cc1 (stereo in doubt) [Compound 152, 4-fluoro-N-[(1R)-2-hydroxy-1-{3-[4-(trifluoromethyl)phenyl]-1,2,4-oxa-diazol-5-yl}ethyl] benzamide] | – | Inhibitory activity ABC evaluation (inhibition rate against amyloid fibril formation, final concentration of the compound 25 μM, 25 µM): B (40% or more and less than 80% were evaluated as B)
11 | O=C1CC(c2nc(-c3ccc(OC(F)(F)F)cc3)no2)CN1c1ccc(Cl)nc1 (centres unmarked) [Compound 48, 1-(6-chloropyridin-3-yl)-4-[3-{4-(trifluoro-methoxy)phenyl}-1,2,4-oxadiazol-5-yl] pyrrolidin-2-one] | 40 to 80% | –
12 | O=C(N[C@H](CO)c1nnc(-c2ccc(OC(F)(F)F)cc2)o1)c1ccc(Cl)cc1 [Compound 107, (R)-4-chloro-N-(2-hydroxy-1-(5-(4-(trifluoro-methoxy)phenyl)-1,3,4-oxzdiazol-2-yl)ethyl)benzamide] | 40 to 80% | –
13 | COCCCNC(=O)c1ccc(-c2noc([C@H](CO)NC(=O)c3ccc(F)cc3)n2)cc1 [Compound 147, 4-{5-[(1S)-1-[(4-fluorophenyl) formamido]-2-hydroxyethyl]-1,2,4-oxadiazol-3-yl}-N-(3-methoxypropyl) benzamide] | 40 to 80% | inhibition at 25 µM [3]: 53%
14 | O=C(NC(CN1CCOCC1)c1nnc(-c2ccc(OC(F)(F)F)cc2)o1)c1ccc(Cl)cc1 (centres unmarked) [Compound 117, 4-chloro-N-(2-morpholino-1-(5-(4-(trifluoro-methoxy)phenyl)-1,3,4-oxadiazol-2-yl)ethyl) benzamide] | 40 to 80% | –

Further lines, with some results ahead:

Row | inhibition at 25 µM [1] | Compound | further results
15 | 40 to 80% | O=C(/C=C/c1cc(Cl)cc(Cl)c1)NC(CO)c1nc(-c2ccc(C(F)(F)F)cc2)no1 (centres unmarked) [Compound 191, (2E)-3-(3,5-dichlorophenyl)-N-(2-hydroxy-1-{3-[4-(trifluoromethyl)phenyl]-1,2,4-oxadiazol-5-yl}ethyl)prop-2-enamide] | inhibition at 25 µM [3]: 73%
16 | < 40% | O=C(N[C@@H](CO)c1nc(-c2ccc(F)cc2Cl)no1)c1ccc(F)cc1 [Compound 219, N-[(1S)-1-[3-(2-chloro-4-fluorophenyl)-1,2,4-oxadiazol-5-yl]-2-hydroxyethyl]-4-fluorobenzamide] | –
17 | 40 to 80% | COCCCNC(=O)c1ccc(-c2noc([C@H](CO)NC(=O)c3ccccc3)n2)cc1 [Compound 148, 4-[5-[(1S)-2-hydroxy-1-(phenylformamido)ethyl]-1,2,4-oxa-diazol-3-yl)-N-(3-methoxypropyl) benzamide] | –
18 | 40 to 80% | O=C(N[C@@H](CO)c1nc(-c2ccc3[nH]cc(F)c3c2)no1)c1ccc(F)cc1 [Compound 194, 4-fluoro-N-[(1S)-1-[3-(3-fluoro-1H-indol-5-yl)-1,2,4-oxadiazol-5-yl]-2-hydroxyethyl] benzamide] | –
19 | 40 to 80% | O=C(Cc1ccc(F)cc1)NC(CO)c1nc(-c2ccc(C(F)(F)F)cc2)no1 (centres unmarked) [Compound 187, 2-(4-fluorophenyl)-N-(2-hydroxy-1-{3-[4-(trifluoromethyl)phenyl]-1,2,4-oxadiazol-5-yl}ethyl)acetamide] | –
20 | 40 to 80% | O=C(N[C@@H](CO)c1nc(-c2c[nH]c3ccc(Cl)cc23)no1)c1ccc(F)cc1 [Compound 233, N-[(1S)-1-[3-(5-chloro-1H-indol-3-yl)-1,2,4-oxadiazol-5-yl]-2-hydroxyethyl]-4-fluorobenzamide] | –
21 | > 80% | O=C(N[C@@H](CO)c1nc(-c2ccc(C(F)(F)F)cc2)no1)c1ccc(F)c(Cl)c1 [Compound 195, 3-chloro-4-fluoro-N-[(1S)-2-hydroxy-1-{3-[4-(trifluoromethyl)phenyl]-1,2,4-oxadiazol-5-yl}ethyl]benzamide] | –
22 | > 80% | O=C(N[C@@H](CO)c1nc(-c2cc3cc(F)ccc3[nH]2)no1)c1ccc(F)cc1 [Compound 267, 4-fluoro-N-[(1S)-1-[3-(5-fluoro-1H-indol-2-yl)-1,2,4-oxadiazol-5-yl]-2-hydroxyethyl] benzamide] | –
23 | > 80% | O=C(NC(CO)c1nc(-c2ccc(C(F)(F)F)cc2)no1)c1ccc2[nH]ccc2c1 (centres unmarked) [Compound 183, N-(2-hydroxy-1-{3-[4-(trifluoromethyl)phenyl]-1,2,4-oxadiazol-5-yl}ethyl)-1H-indole-5-carboxamide] | –
24 | 40 to 80% | O=C(N[C@@H](CO)c1nc(-c2nccc3ccccc23)no1)c1ccc(F)cc1 [Compound 226, 4-fluoro-N-[(1S)-2-hydroxy-1-[3-(isoquinolin-1-yl)-1,2,4-oxadiazol-5-yl]ethyl]benzamide] | –
25 | > 80% | O=C(N[C@@H](CO)c1nc(-c2cccc(C(F)(F)F)c2)no1)c1ccccc1 [Compound 177, N-[(1S)-2-hydroxy-1-{3-[3-(trifluoromethyl)phenyl]-1,2,4-oxadiazol-5-yl}ethyl] benzamide] | –
